# According to ChEMBL document CHEMBL5344455, “Discovery and Characterization of Active CBP/EP300 Degraders Targeting the HAT Domain” (ACS Med Chem Lett, 2024):
# Active and inactive are the calls of the source. The rule behind the calls is not given here.
# Assays:
# LP-1 [1] = test: Antiproliferative activity against human LP-1 cells assessed as growth inhibition incubated for 3 days by fluorescence based assay; assay type: functional; details: LP-1, 72 h, time 3 day
# [2] = target: T1, Protein cereblon/CREB-binding protein (Homo sapiens, UniProt Q92793+Q96SW2); test: Protac activity at CRBN/CBP in human LP-1 cells assessed as protein remaining at 5 uM after 16 hrs by Western blotting analysis; assay type: cell-based
# [3] = target: T2, Protein cereblon/Histone acetyltransferase p300 (Homo sapiens) (UniProt Q09472+Q96SW2); test: Protac activity at CRBN/EP300 in human LP-1 cells assessed as protein remaining at 5 uM after 16 hrs by Western blotting analysis; assay type: cell-based
# LP-1 [4] = test: Protac activity at IAP/CBP in human LP-1 cells assessed as protein remaining at 5 uM after 16 hrs by Western blotting analysis; assay type: cell-based
# LP-1 [5] = test: Protac activity at IAP/EP300 in human LP-1 cells assessed as protein remaining at 5 uM after 16 hrs by Western blotting analysis; assay type: cell-based
# CREB-binding protein = CREB-binding protein (Homo sapiens, UniProt Q92793); test: Inhibition of CBP (unknown origin) by radiometric assay
# CREB-binding protein, sequence (Q92793 whole entry): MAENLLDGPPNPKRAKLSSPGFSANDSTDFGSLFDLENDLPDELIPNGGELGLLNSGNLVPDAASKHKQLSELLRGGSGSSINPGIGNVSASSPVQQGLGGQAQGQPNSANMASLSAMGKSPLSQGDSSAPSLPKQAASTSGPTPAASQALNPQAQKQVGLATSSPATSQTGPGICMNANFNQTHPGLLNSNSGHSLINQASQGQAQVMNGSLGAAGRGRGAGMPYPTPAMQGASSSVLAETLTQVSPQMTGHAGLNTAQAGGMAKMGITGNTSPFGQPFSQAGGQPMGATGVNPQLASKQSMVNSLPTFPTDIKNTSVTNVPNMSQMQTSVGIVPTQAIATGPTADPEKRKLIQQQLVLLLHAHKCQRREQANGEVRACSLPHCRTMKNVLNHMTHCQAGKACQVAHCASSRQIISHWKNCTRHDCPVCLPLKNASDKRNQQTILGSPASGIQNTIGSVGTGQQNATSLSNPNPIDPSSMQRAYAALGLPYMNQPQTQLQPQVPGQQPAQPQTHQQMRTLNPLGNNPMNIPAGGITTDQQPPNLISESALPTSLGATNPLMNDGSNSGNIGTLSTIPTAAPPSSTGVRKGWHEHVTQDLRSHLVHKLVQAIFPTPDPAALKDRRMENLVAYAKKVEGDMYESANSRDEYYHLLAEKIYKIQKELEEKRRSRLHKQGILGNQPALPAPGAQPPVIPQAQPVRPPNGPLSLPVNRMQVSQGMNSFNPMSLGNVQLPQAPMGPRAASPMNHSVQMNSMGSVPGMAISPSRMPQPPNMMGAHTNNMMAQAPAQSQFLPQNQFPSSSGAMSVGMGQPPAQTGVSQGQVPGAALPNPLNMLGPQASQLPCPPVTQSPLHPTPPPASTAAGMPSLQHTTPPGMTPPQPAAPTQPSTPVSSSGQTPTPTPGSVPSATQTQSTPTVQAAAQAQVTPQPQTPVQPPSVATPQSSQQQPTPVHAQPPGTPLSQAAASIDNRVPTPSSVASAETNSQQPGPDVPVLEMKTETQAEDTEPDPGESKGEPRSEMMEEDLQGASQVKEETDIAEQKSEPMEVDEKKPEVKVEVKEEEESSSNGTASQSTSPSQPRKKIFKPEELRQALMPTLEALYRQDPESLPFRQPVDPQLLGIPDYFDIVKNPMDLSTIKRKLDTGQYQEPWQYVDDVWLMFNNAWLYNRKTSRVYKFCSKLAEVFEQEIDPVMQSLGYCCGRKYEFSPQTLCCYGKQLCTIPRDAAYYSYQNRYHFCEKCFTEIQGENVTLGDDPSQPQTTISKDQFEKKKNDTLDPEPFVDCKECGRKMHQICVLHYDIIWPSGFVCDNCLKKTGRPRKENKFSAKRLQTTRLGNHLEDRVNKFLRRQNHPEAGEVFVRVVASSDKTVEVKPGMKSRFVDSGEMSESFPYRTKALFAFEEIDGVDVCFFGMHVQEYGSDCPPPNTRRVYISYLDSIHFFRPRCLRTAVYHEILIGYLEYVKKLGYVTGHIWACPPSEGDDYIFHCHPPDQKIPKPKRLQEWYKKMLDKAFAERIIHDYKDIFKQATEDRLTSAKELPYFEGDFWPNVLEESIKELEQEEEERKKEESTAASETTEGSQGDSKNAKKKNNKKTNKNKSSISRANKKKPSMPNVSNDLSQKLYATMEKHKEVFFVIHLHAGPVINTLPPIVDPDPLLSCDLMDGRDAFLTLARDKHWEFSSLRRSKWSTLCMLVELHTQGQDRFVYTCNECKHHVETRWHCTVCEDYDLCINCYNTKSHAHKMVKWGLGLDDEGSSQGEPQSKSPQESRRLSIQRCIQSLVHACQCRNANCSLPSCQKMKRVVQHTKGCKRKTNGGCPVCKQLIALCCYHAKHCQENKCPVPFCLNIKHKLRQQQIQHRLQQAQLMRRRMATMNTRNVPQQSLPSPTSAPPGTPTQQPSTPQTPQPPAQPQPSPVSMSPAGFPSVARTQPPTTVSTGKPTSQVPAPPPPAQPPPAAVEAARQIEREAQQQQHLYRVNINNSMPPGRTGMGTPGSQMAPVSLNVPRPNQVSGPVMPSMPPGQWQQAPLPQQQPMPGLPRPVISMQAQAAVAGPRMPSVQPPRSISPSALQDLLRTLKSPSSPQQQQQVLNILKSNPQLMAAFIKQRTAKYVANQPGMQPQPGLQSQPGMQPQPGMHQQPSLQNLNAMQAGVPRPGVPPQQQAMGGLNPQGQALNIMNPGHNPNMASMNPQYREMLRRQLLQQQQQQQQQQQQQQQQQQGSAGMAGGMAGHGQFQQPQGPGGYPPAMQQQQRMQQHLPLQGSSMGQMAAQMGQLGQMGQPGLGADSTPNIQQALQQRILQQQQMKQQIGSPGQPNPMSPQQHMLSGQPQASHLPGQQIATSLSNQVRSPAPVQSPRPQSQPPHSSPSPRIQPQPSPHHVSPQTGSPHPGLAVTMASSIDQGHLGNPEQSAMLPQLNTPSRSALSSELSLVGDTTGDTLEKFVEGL
# [6] = target: von Hippel-Lindau disease tumor suppressor/CREB-binding protein (Homo sapiens) (UniProt Q92793+P40337); test: Protac activity at VHL/CBP in human LP-1 cells assessed as protein remaining at 5 uM after 16 hrs by Western blotting analysis; assay type: cell-based
# von Hippel-Lindau disease tumor suppressor/CREB-binding protein (Homo sapiens), sequence (P40337 whole entry, looked up): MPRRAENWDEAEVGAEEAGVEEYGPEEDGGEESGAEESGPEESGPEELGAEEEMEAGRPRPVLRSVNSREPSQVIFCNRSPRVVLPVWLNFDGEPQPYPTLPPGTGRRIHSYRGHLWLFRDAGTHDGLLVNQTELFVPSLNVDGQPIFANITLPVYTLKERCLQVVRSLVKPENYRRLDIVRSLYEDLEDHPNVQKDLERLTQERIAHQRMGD
# von Hippel-Lindau disease tumor suppressor/CREB-binding protein (Homo sapiens), sequence (Q92793 whole entry, looked up): as the sequence (Q92793 whole entry) above
# [7] = target: von Hippel-Lindau disease tumor suppressor/Histone acetyltransferase p300 (Homo sapiens) (UniProt Q09472+P40337); test: Protac activity at VHL/EP300 in human LP-1 cells assessed as protein remaining at 5 uM after 16 hrs by Western blotting analysis; assay type: cell-based
# von Hippel-Lindau disease tumor suppressor/Histone acetyltransferase p300 (Homo sapiens), sequence (P40337 whole entry, looked up): as the sequence (P40337 whole entry, looked up) above
# von Hippel-Lindau disease tumor suppressor/Histone acetyltransferase p300 (Homo sapiens), sequence (Q09472 whole entry, looked up): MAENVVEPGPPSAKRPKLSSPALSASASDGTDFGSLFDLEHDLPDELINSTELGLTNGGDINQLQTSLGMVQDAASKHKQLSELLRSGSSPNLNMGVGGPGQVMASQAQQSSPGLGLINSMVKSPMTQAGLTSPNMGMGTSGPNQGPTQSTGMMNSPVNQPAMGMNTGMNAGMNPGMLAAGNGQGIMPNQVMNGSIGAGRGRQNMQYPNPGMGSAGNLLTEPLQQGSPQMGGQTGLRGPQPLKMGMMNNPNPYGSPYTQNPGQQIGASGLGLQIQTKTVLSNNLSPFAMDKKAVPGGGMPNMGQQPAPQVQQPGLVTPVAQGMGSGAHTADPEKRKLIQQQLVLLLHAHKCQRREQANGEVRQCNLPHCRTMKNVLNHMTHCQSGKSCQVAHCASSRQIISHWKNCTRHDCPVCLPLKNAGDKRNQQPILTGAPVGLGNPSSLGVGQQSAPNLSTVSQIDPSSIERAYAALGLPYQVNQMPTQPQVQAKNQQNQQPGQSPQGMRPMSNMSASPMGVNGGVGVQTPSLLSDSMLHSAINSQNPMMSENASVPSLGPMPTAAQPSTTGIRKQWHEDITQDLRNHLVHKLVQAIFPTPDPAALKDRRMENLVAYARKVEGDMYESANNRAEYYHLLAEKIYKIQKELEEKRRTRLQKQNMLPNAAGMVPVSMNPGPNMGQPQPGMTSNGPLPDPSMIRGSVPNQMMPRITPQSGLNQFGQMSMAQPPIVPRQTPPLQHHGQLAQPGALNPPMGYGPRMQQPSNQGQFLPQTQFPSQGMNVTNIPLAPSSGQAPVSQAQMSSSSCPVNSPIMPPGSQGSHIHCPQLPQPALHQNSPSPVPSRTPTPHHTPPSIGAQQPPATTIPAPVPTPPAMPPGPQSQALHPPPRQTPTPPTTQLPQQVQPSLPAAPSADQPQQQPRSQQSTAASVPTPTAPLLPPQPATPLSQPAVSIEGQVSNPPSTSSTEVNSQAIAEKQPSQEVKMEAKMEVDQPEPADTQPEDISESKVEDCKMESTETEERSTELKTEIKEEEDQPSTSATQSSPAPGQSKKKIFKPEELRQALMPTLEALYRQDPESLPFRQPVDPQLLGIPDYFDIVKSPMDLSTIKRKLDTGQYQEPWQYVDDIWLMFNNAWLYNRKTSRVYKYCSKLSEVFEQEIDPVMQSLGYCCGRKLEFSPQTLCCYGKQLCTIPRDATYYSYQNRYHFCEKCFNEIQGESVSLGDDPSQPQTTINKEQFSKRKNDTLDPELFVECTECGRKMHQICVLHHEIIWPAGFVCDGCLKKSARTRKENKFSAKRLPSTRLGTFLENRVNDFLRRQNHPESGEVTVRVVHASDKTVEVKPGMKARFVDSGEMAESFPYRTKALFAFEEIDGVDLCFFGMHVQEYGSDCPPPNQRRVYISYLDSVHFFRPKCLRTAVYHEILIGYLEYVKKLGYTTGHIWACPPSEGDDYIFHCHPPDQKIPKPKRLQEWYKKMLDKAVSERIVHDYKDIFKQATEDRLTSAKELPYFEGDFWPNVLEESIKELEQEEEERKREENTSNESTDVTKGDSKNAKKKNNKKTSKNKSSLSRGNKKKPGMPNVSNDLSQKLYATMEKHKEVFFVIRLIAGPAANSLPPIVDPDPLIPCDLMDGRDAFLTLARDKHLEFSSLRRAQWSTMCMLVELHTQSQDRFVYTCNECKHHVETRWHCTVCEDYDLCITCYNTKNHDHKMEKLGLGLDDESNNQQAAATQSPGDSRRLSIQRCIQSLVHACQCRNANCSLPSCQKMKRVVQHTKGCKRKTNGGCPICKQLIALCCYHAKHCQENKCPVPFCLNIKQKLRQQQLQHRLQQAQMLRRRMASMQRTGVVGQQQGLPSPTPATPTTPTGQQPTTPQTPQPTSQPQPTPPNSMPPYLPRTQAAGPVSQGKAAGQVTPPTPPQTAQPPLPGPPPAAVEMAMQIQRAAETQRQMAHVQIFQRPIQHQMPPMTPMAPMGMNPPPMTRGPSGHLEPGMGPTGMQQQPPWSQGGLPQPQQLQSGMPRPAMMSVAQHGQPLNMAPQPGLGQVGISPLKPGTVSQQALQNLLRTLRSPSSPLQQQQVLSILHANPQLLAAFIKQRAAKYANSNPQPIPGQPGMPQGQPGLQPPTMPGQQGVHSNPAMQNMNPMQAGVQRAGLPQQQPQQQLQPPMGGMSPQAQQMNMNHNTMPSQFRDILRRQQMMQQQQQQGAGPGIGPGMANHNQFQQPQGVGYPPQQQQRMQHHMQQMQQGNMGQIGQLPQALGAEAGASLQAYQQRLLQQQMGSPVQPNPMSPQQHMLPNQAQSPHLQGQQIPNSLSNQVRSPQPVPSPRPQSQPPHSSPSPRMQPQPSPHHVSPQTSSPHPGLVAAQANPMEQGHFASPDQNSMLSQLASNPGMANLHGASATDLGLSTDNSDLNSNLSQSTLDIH
# [8] = target: T1, Protein cereblon/CREB-binding protein; test: Protac activity at CRBN/CBP in human MM1.S cells at 5 uM after 16 hrs by Western blotting analysis; assay type: cell-based
# [9] = target: T1, Protein cereblon/CREB-binding protein; test: Protac activity at CRBN/CBP in human LP-1 cells at 5 uM after 16 hrs by Western blotting analysis; assay type: cell-based
# [10] = target: T2, Protein cereblon/Histone acetyltransferase p300 (Homo sapiens); test: Protac activity at CRBN/EP300 in human MM1.S cells at 5 uM after 16 hrs by Western blotting analysis; assay type: cell-based
# [11] = target: T2, Protein cereblon/Histone acetyltransferase p300 (Homo sapiens); test: Protac activity at CRBN/EP300 in human LP-1 cells at 5 uM after 16 hrs by Western blotting analysis; assay type: cell-based
# [12] = target: T1, Protein cereblon/CREB-binding protein; test: Protac activity at CRBN/CBP degradation in human LP-1 cells assessed as induction of ternary complex formation by measuring fluorescent foci at 2 uM after 6 hrs by fluorescence microscopic analysis; assay type: cell-based
# [13] = target: T1, Protein cereblon/CREB-binding protein; test: Protac activity at CRBN/CBP degradation in human LP-1 cells at 5 uM preincubated with pomalidomide for 1 hr followed by compound addition and measured after 16 hrs by Western blotting analysis; assay type: cell-based
# [14] = target: T1, Protein cereblon/CREB-binding protein; test: Protac activity at CRBN/CBP degradation in human LP-1 cells at 5 uM preincubated with CPI-1612 for 1 hr followed by compound addition and measured after 16 hrs by Western blotting analysis; assay type: cell-based
# [15] = target: T1, Protein cereblon/CREB-binding protein; test: Protac activity at CRBN/CBP degradation in human LP-1 cells at 5 uM preincubated with MG-132 for 1 hr followed by compound addition and measured after 16 hrs by Western blotting analysis; assay type: cell-based
# [16] = target: T1, Protein cereblon/CREB-binding protein; test: Protac activity at CRBN/CBP in human LP-1 cells after 16 hrs by Western blotting analysis; assay type: cell-based
# [17] = target: T1, Protein cereblon/CREB-binding protein; test: Protac activity at CRBN/CBP in human LP-1 cells at 5 uM after 8 to 48 hrs by Western blotting analysis; assay type: cell-based; details: time 8-48 hrs
# CCRF-CEM = test: Antiproliferative activity against human CCRF-CEM cells; assay type: functional, cell-based
# HL-60(TB) = test: Antiproliferative activity against human HL-60(TB) cells; assay type: functional, cell-based
# K562 = test: Antiproliferative activity against human K562 cells; assay type: functional, cell-based
# MOLT-4 = test: Antiproliferative activity against human MOLT-4 cells; assay type: functional, cell-based
# RPMI-8226 = test: Antiproliferative activity against human RPMI-8226 cells; assay type: functional, cell-based
# SR = test: Antiproliferative activity against human SR cells; assay type: functional, cell-based
smiles,measurement,setting,value
C[C@H](CN[C@@H](C(=O)Nc1ccc(-c2cnn(CCCC(=O)NCCCCCCCCNc3cccc4c3C(=O)N(C3CCC(=O)NC3=O)C4=O)c2)cn1)c1ccccc1)c1ccc(C#N)cc1 (some centres not stated),GI50,LP-1 [1],470 nM
same,Activity,[2],87%
same,Activity,[3],79%
CN[C@@H](C)C(=O)N[C@H](C(=O)N1C[C@@H](NC(=O)CCCCCCCNC(=O)CCCn2cc(-c3ccc(NC(=O)[C@H](NC[C@@H](C)c4ccc(C#N)cc4)c4ccccc4)nc3)cn2)C[C@H]1C(=O)Nc1c(F)cccc1F)C(C)(C)C,GI50,LP-1 [1],2300 nM
same,Activity,LP-1 [4],> 95%
same,Activity,LP-1 [5],> 95%
CCOCCNC(=O)CCCn1cc(-c2ccc(NC(=O)C(NCC(C)c3ccc(C#N)cc3)c3ccccc3)nc2)cn1 (configuration not stated),IC50,CREB-binding protein,1010 nM
Cc1ncsc1-c1ccc(CNC(=O)[C@@H]2C[C@@H](O)CN2C(=O)[C@@H](NC(=O)COCCOCCNC(=O)CCCn2cc(-c3ccc(NC(=O)[C@H](NC[C@@H](C)c4ccc(C#N)cc4)c4ccccc4)nc3)cn2)C(C)(C)C)cc1,Activity,[6],> 95%
same,Activity,[7],> 95%
same,GI50,LP-1 [1],1000 nM
C[C@H](CN[C@@H](C(=O)Nc1ccc(-c2cnn(CCCC(=O)NCCOCCOCCOCCOCCOCCNc3cccc4c3C(=O)N(C3CCC(=O)NC3=O)C4=O)c2)cn1)c1ccccc1)c1ccc(C#N)cc1 (some centres not stated),Activity,[2],Active
same,Activity,[3],Active
C[C@H](CN[C@@H](C(=O)Nc1ccc(-c2cnn(C)c2)cn1)c1ccccc1)c1ccc(C#N)cc1,IC50,CREB-binding protein,116 nM
same,GI50,LP-1 [1],5 nM
C[C@H](CN[C@@H](C(=O)Nc1ccc(-c2cnn(CCCC(=O)NCCOCCOCCOCCOCCOCCOCCOCCNc3cccc4c3C(=O)N(C3CCC(=O)NC3=O)C4=O)c2)cn1)c1ccccc1)c1ccc(C#N)cc1 (some centres not stated),Activity,[2],Active
same,Activity,[3],Active
C[C@H](N(Cc1ccc(F)cc1)C(=O)CN1C(=O)O[C@@]2(CCc3cc(NC(=O)CCCCCCCCCCCNc4ccc5c(c4)C(=O)N(C4CCC(=O)NC4=O)C5=O)ccc32)C1=O)C(F)(F)F (some centres not stated),Activity,[8],inactive
same,Activity,[9],inactive
same,Activity,[10],inactive
same,Activity,[11],inactive
Cc1ncsc1-c1ccc(CNC(=O)[C@@H]2C[C@@H](O)CN2C(=O)[C@@H](NC(=O)CCCCCCCNC(=O)CCCn2cc(-c3ccc(NC(=O)[C@H](NC[C@@H](C)c4ccc(C#N)cc4)c4ccccc4)nc3)cn2)C(C)(C)C)cc1,Activity,[6],> 95%
same,Activity,[7],> 95%
same,GI50,LP-1 [1],4700 nM
COCCNC(=O)CCCCn1cc(-c2ccc(NC(=O)C(NCC(C)c3ccc(C#N)cc3)c3ccccc3)nc2)cn1 (configuration not stated),IC50,CREB-binding protein,819 nM
C[C@H](CN[C@@H](C(=O)Nc1ccc(-c2cnn(CCCC(=O)NCCCCCCCCNc3ccc4c(c3)C(=O)N(C3CCC(=O)NC3=O)C4=O)c2)cn1)c1ccccc1)c1ccc(C#N)cc1 (some centres not stated),GI50,LP-1 [1],260 nM
same,Activity,[2],> 95%
same,Activity,[3],95%
CCOCCNC(=O)CCn1cc(-c2ccc(NC(=O)C(NCC(C)c3ccc(C#N)cc3)c3ccccc3)nc2)cn1 (configuration not stated),IC50,CREB-binding protein,1870 nM
CN[C@@H](C)C(=O)N[C@H](C(=O)N1C[C@@H](NC(=O)CCOCCOCCOCCNC(=O)CCCn2cc(-c3ccc(NC(=O)[C@H](NC[C@@H](C)c4ccc(C#N)cc4)c4ccccc4)nc3)cn2)C[C@H]1C(=O)Nc1c(F)cccc1F)C(C)(C)C,GI50,LP-1 [1],500 nM
same,Activity,LP-1 [4],> 95%
same,Activity,LP-1 [5],> 95%
C[C@H](CN[C@@H](C(=O)Nc1ccc(-c2cnn(CCCC(=O)NCCOCCOCCOCCOCCOCCOCCNc3cccc4c3C(=O)N(C3CCC(=O)N(C)C3=O)C4=O)c2)cn1)c1ccccc1)c1ccc(C#N)cc1 (some centres not stated),Activity,[12],inactive
C[C@H](CN[C@@H](C(=O)Nc1ccc(-c2cnn(CCCC(=O)NCCOCCOCCOCCOCCOCCOCCNc3cccc4c3C(=O)N(C3CCC(=O)NC3=O)C4=O)c2)cn1)c1ccccc1)c1ccc(C#N)cc1 (some centres not stated),Activity,[2],Active
same,Activity,[3],Active
same,EC50,[12],1200 nM
same,Activity,[13],Active
same,Activity,[14],Active
same,Activity,[15],Active
same,EC50,[16],1300 nM
same,Activity,[17],Active
same,Activity,[8],Active
same,Activity,CCRF-CEM,Active
same,Activity,HL-60(TB),Active
same,Activity,K562,Active
same,Activity,MOLT-4,Active
same,Activity,RPMI-8226,Active
same,Activity,SR,Active
C[C@H](CN[C@@H](C(=O)Nc1ccc(-c2cnn(CCCC(=O)NCCOCCOCCOCCNc3cccc4c3C(=O)N(C3CCC(=O)NC3=O)C4=O)c2)cn1)c1ccccc1)c1ccc(C#N)cc1 (some centres not stated),GI50,LP-1 [1],500 nM
same,Activity,[2],> 95%
same,Activity,[3],76%
CN[C@@H](C)C(=O)N[C@H](C(=O)N1C[C@@H](NC(=O)CCOCCOCCNC(=O)CCCn2cc(-c3ccc(NC(=O)[C@H](NC[C@@H](C)c4ccc(C#N)cc4)c4ccccc4)nc3)cn2)C[C@H]1C(=O)Nc1c(F)cccc1F)C(C)(C)C,GI50,LP-1 [1],> 10000 nM
same,Activity,LP-1 [4],87%
same,Activity,LP-1 [5],93%
Cc1ncsc1-c1ccc(CNC(=O)[C@H]2C[C@H](O)CN2C(=O)[C@H](NC(=O)CCOCCOCCOCCNC(=O)CCCn2cc(-c3ccc(NC(=O)[C@H](NC[C@@H](C)c4ccc(C#N)cc4)c4ccccc4)nc3)cn2)C(C)(C)C)cc1,Activity,[6],> 95%
same,Activity,[7],89%
same,GI50,LP-1 [1],2200 nM
Nc1cccc2c1C(=O)N(C1CCC(=O)NC1=O)C2=O (configuration not stated) [POMALIDOMIDE],GI50,LP-1 [1],> 10000 nM
C[C@H](CN[C@@H](C(=O)Nc1ccc(-c2cnn(CCCC(=O)NCCOCCOCCOCCOCCNc3cccc4c3C(=O)N(C3CCC(=O)NC3=O)C4=O)c2)cn1)c1ccccc1)c1ccc(C#N)cc1 (some centres not stated),Activity,[2],Active
same,Activity,[3],Active
C[C@H](CN[C@@H](C(=O)Nc1ccc(-c2cnn(CCCC(=O)NCCOCCOCCNc3cccc4c3C(=O)N(C3CCC(=O)NC3=O)C4=O)c2)cn1)c1ccccc1)c1ccc(C#N)cc1 (some centres not stated),GI50,LP-1 [1],330 nM
same,Activity,[2],> 95%
same,Activity,[3],79%
